The subject of data set [1] is MDA-MB-231 (breast cancer). The data set is described as follows: Growth inhibition of MDA-MB-231 (NCI-60 human tumor cell line screen). The class given is cell-based.
The target of the next data set is MNK2 (Homo sapiens, UniProt Q9HBH9). The data set is described as follows: MNK2 inhibition, in vitro studies at Reaction Biology Corporation. The class given is biochemical. The note with it: 50 nM compound, 10 uM ATP.
In data set [2] the test system is multiple myeloma cell lines. The data set is described as follows: Inhibition of multiple myeloma cell lines. The note with it: FIG. 4. The class given is cell-based, human.
Data set [3] relates to 4T1 (breast) syngeneic tumor. The data set is described as follows: 4T1 in vivo tumor reduction. Further details: species or system Female Balb-C mice. The note with it: 15 mg/kg orally QD, 5 days on 2 days off. As for the experimental part:
0.5×10^6 4T1 cells were injected subcutaneously (SQ) into the right flank of Female Balb-C mice. Each group consisted of 5 tumor-bearing mice. 7 days after tumor implantation, mice were dosed orally QD with vehicle control (5% DMSO, 40% PEG300, 5% tween 80, 50% water) or HSND80 (15 mg/Kg). Mice were dosed 5 days on and 2 days off (drug holiday). Tumors were measured every other day (L, W, H) to give tumor volume in mm^3.

A short description of data set [4]: Oral bioavailability study in mice. The class given is in vivo, Male CD1 Mice. The note with it: 10 mg/Kg, FIG. 5. The method, then:
The bioavailability and Cmax of the ring-6-substituted imidazo[1,2-b]pyridazine compounds were also assessed.
Briefly, compounds were dissolved in 10% dimethylsulfoxide (DMSO)/90% (20% HP-β-CD in water (w/w)). Male CD1 Mice (n=3) were dosed orally with 10 mg/Kg of each compound (HSND80, HSND41, HSND101, HSND102, HSND141, and HSND156). Blood was sampled at 0.25 hours, 0.5 hour, 1 hour, 2 hours, 4 hours, 8 hours, and 24 hours post dose, and the concentration of compound in blood at each specific time point was determined via liquid chromatography-mass spectrometry (LC-MS) (high-performance liquid chromatography (HPLC) instrument: Shimadzu; MS instrument: AB API 5500 LC/MS/MS; Column: HALO C18 90 A 2.7 μm (30*2.1 mm); Mobile phase A: 5% Acetonitrile in Water (0.1% Formic acid); Mobile phase B: 95% Acetonitrile in Water (0.1% Formic acid)).

Molecules are shown by their SMILES.

Sequence of MNK2 (Q9HBH9 whole entry): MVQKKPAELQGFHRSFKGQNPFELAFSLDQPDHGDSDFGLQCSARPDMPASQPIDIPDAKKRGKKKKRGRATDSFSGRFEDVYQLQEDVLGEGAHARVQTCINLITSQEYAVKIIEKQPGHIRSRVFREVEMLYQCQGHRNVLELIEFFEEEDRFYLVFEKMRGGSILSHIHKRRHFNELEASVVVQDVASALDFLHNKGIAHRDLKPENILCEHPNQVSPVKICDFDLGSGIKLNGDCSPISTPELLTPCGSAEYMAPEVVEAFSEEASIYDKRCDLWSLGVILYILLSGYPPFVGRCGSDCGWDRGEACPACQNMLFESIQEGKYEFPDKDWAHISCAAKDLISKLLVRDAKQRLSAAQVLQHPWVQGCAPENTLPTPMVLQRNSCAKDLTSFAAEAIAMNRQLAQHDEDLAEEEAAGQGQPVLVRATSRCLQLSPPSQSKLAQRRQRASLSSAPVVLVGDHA

What is called inhibition is the relative decrease from the control value, in per cent. A low value points to a response near the control. As a reminder, the IC50 is the concentration that inhibits the measured activity by half. Lower therefore signals greater potency. In data set [1] (200 nM), `C[C@@H]1CN(c2ccc3ncc(C#Cc4cncc(C(=O)Nc5ccc(CN6CCN(C)CC6)c(C(F)(F)F)c5)c4)n3n2)C[C@H](C)O1` [HSND80, 5-((6-((2S,6R)-2,6-Dimethylmorpholino)imidazo[1,2-b]pyridazin-3-yl)ethynyl)-N-(4-((4-methylpiperazin-1-yl)methyl)-3-(trifluoromethyl)phenyl)nicotinamide] yielded an inhibition at 0.2 µM of 100%. Further, the midpoint of inhibition in data set [1] (72 hours), the IC50, lay at 8.6 nM. The same molecule yielded an inhibition at 0.05 µM against MNK2 of 96%. In data set [2], the “inhibition of multiple myeloma cell lines” value is “potently inhibited”. Besides, in data set [3], the “reduction of growth of 4T1 tumor” value is listed as approximately 60%. Besides, the “bioavailability” value in data set [4] was “more bioavailablity than unsubstituted morpholine (compound HSND41)”.

Source of the values: patent US20250243203A1, “NICOTINAMIDE- AND BENZAMIDE-BASED COMPOUNDS, CONJUGATES, AND COMPOSITIONS AS INHIBITORS OF TRANSLATIONAL- AND TRANSCRIPTIONAL-RELATED KINASES” (PURDUE RESEARCH FOUNDATION, priority 2022, published 2025).
